Experimental data from patent US9029391B2 (priority 2011, dated 2015).
Where two headings read alike, the source gives them in different places.

Tested on: HIV
Assay: MT4 Assay (anti-HIV activity)
Type: cell-based
Outline: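 IC50 values were fitted to 10-point dose-response series (3-4-fold dilutions, range >1000-fold), normalized to no-compound control. CellTiter-Glo read-out was taken after 96 hours in HTLV-1-transformed MT-4 cells. Cytotoxicity was measured in parallel under identical conditions.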

[1] = Human immunodeficiency virus 1, 96 h, read-out: HIV MT4 Assay IC50, HTLV-1 transformed cell line MT-4, cell titer glo, 10 point dose response curve
[2] = read-out: HIV MT4 Assay IC50, HTLV-1 transformed cell line MT-4, 96 hours, cell titer glo, 10 point dose response curve

Compound	IC50 [1] [nM]	IC50 [2] [nM]
Cc1ccccc1-c1c(C(OC(C)(C)C)C(=O)O)n(C)c(=O)c2ccccc12 (stereo not shown) [Example 71, 2-(tert-butoxy)-2-[2-methyl-4-(2-methylphenyl)-1-oxo-1,2-dihydroisoquinolin-3-yl]acetic acid]	1450	
Cc1ccc2c(-c3ccc4c(c3C)CCCO4)c(C(OC(C)(C)C)C(=O)O)n(C)c(=O)c2c1 (stereo not shown) [Example 67, 2-(tert-butoxy)-2-[2,7-dimethyl-4-(5-methyl-3,4-dihydro-2H-1-benzopyran-6-yl)-1-oxo-1,2-dihydroisoquinolin-3-yl]acetic acid]	120	
Cn1c(C(OC(C)(C)C)C(=O)O)c(-c2ccc3c(c2)CCCO3)c2ccc(F)cc2c1=O (stereo not shown) [Example 57, 2-(tert-butoxy)-2-[4-(3,4-dihydro-2H-1-benzopyran-6-yl)-7-fluoro-2-methyl-1-oxo-1,2-dihydroisoquinolin-3-yl]acetic acid]	1650	
Cn1c(C(OC(C)(C)C)C(=O)O)c(-c2ccc(F)cc2)c2ccccc2c1=O (stereo not shown) [Example 9, 2-(tert-butoxy)-2-[4-(4-fluorophenyl)-2-methyl-1-oxo-1,2-dihydroisoquinolin-3-yl]acetic acid]	1330	
Cc1c(-c2c(C(OC(C)(C)C)C(=O)O)n(C)c(=O)c3cc(F)ccc23)cc(F)c2c1CCCO2 (stereo not shown) [Example 92, 2-(tert-butoxy)-2-[7-fluoro-4-(8-fluoro-5-methyl-3,4-dihydro-2H-1-benzopyran-6-yl)-2-methyl-1-oxo-1,2-dihydroisoquinolin-3-yl]acetic acid]	140	
Cc1c(-c2c(C(OC(C)(C)C)C(=O)O)n(C)c(=O)c3cc(OCC(=O)O)ccc23)ccc2c1CCCO2 (stereo not shown) [Example 122, 2-({3-[(tert-butoxy)(carboxy)methyl]-2-methyl-4-(5-methyl-3,4-dihydro-2H-1-benzopyran-6-yl)-1-oxo-1,2-dihydroisoquinolin-7-yl}oxy)acetic acid]	50000	
Cc1c(-c2c([C@H](OC(C)(C)C)C(=O)O)n(C)c(=O)c3cc(-c4cn[nH]c4)ccc23)cc(F)c2c1CCCO2 (atropisomer, axis not shown; (M)) [Example 197, (2S)(M)-[(1,1-dimethylethyl)oxy][4-(8-fluoro-5-methyl-3,4-dihydro-2H-chromen-6-yl)-2-methyl-1-oxo-7-(1H-pyrazol-4-yl)-1,2-dihydro-3-isoquinolinyl]ethanoic acid]	1460	
COc1cccc(-c2ccc3c(-c4cc(F)c5c(c4C)CCCO5)c([C@H](OC(C)(C)C)C(=O)O)n(C)c(=O)c3c2)n1 (atropisomer, axis not shown; (M)) [Example 208, (2S)(M)-[(1,1-dimethylethyl)oxy]{4-(8-fluoro-5-methyl-3,4-dihydro-2H-chromen-6-yl)-2-methyl-7-[6-(methyloxy)-2-pyridinyl]-1-oxo-1,2-dihydro-3-isoquinolinyl}ethanoic acid]	40	
Cn1c(C(OC(C)(C)C)C(=O)O)c(-c2cc3c4c(c2)CCCN4CCC3)c2ccccc2c1=O (stereo not shown) [Example 158, [(1,1-dimethylethyl)oxy][2-methyl-1-oxo-4-(2,3,6,7-tetrahydro-1H,5H-pyrido[3,2,1-ij]quinolin-9-yl)-1,2-dihydro-3-isoquinolinyl]acetic acid]	50000	
Cc1c(-c2c([C@H](OC(C)(C)C)C(=O)O)n(C)c(=O)c3cc(N4CCS(=O)(=O)CC4)ccc23)cc(F)c2c1CCCO2 (atropisomer, axis not shown; (M)) [Example 167, (2S)(M)-[(1,1-dimethylethyl)oxy][7-(1,1-dioxido-4-thiomorpholinyl)-4-(8-fluoro-5-methyl-3,4-dihydro-2H-chromen-6-yl)-2-methyl-1-oxo-1,2-dihydro-3-isoquinolinyl]ethanoic acid]	3710	
Cc1ccc(-c2c(C(OC(C)(C)C)C(=O)O)n(C)c(=O)c3cc(-c4ccoc4C)ccc23)cc1C (stereo not shown) [Example 193, [(1,1-dimethylethyl)oxy][4-(3,4-dimethylphenyl)-2-methyl-7-(2-methyl-3-furanyl)-1-oxo-1,2-dihydro-3-isoquinolinyl]acetic acid]	1340	
CC1CCOc2ccc(-c3c(C(OC(C)(C)C)C(=O)O)n(C)c(=O)c4ccccc34)cc21 (stereo not shown) [Example 149, [(1,1-dimethylethyl)oxy][2-methyl-4-(4-methyl-3,4-dihydro-2H-chromen-6-yl)-1-oxo-1,2-dihydro-3-isoquinolinyl]acetic acid]	1170	
Cc1c(-c2c(C(OC(C)(C)C)C(=O)O)n(C)c(=O)c3cc(OCc4ccccc4)ccc23)ccc2c1CCCO2 (stereo not shown) [Example 88, 2-[7-(benzyloxy)-2-methyl-4-(5-methyl-3,4-dihydro-2H-1-benzopyran-6-yl)-1-oxo-1,2-dihydroisoquinolin-3-yl]-2-(tert-butoxy)acetic acid]	110	
Cc1cccnc1COc1ccc2c(-c3ccc4c(c3C)CCCO4)c(C(OC(C)(C)C)C(=O)O)n(C)c(=O)c2c1 (stereo not shown) [Example 102, 2-(tert-butoxy)-2-[2-methyl-4-(5-methyl-3,4-dihydro-2H-1-benzopyran-6-yl)-7-[(3-methylpyridin-2-yl)methoxy]-1-oxo-1,2-dihydroisoquinolin-3-yl]acetic acid]	330	
Cc1c(-c2c(C(OC(C)(C)C)C(=O)O)n(C)c(=O)c3cc(OCCN(C)C)ccc23)ccc2c1CCCO2 (stereo not shown) [Example 85, 2-(tert-butoxy)-2-{7-[2-(dimethylamino)ethoxy]-2-methyl-4-(5-methyl-3,4-dihydro-2H-1-benzopyran-6-yl)-1-oxo-1,2-dihydroisoquinolin-3-yl}acetic acid]	7630	
Cc1c(-c2c([C@H](OC(C)(C)C)C(=O)O)n(C)c(=O)c3cc(OCc4ccc(F)cc4F)ccc23)ccc2c1CCCO2 [Example 148, (2S)-2-(tert-butoxy)-2-{7-[(2,4-difluorophenyl)methoxy]-2-methyl-4-(5-methyl-3,4-dihydro-2H-1-benzopyran-6-yl)-1-oxo-1,2-dihydroisoquinolin-3-yl}acetic acid]	50	
Cc1ccc(-c2c(C(OC(C)(C)C)C(=O)O)n(C)c(=O)c3cc(-c4cn(CCO)nn4)ccc23)c(C)c1 (stereo not shown) [Example 219, [(1,1-dimethylethyl)oxy]{4-(2,4-dimethylphenyl)-7-[1-(2-hydroxyethyl)-1H-1,2,3-triazol-4-yl]-2-methyl-1-oxo-1,2-dihydro-3-isoquinolinyl}acetic acid]	11100	
COc1ccc(-c2c(C(OC(C)(C)C)C(=O)O)n(C)c(=O)c3ccccc23)c(C)c1 (stereo not shown) [Example 31, 2-(tert-butoxy)-2-[4-(4-methoxy-2-methylphenyl)-2-methyl-1-oxo-1,2-dihydroisoquinolin-3-yl]acetic acid]	1720	
Cc1c(-c2c(C(OC(C)(C)C)C(=O)O)n(C)c(=O)c3cc(OCc4ccc(F)c(F)c4)ccc23)ccc2c1CCCO2 (stereo not shown) [Example 138, 2-(tert-butoxy)-2-{7-[(3,4-difluorophenyl)methoxy]-2-methyl-4-(5-methyl-3,4-dihydro-2H-1-benzopyran-6-yl)-1-oxo-1,2-dihydroisoquinolin-3-yl}acetic acid]	70	
Cc1c(-c2c([C@@H](OC(C)(C)C)C(=O)O)n(C)c(=O)c3ccccc23)cc(F)c2c1CCCO2 [Example 161, (2R)-2-(tert-butoxy)-2-[4-(8-fluoro-5-methyl-3,4-dihydro-2H-1-benzopyran-6-yl)-2-methyl-1-oxo-1,2-dihydroisoquinolin-3-yl]acetic acid]		7210
Cc1c(-c2c([C@H](OC(C)(C)C)C(=O)O)n(C)c(=O)c3ccccc23)cc(F)c2c1CCCO2 [Example 162, (2S)-2-(tert-butoxy)-2-[4-(8-fluoro-5-methyl-3,4-dihydro-2H-1-benzopyran-6-yl)-2-methyl-1-oxo-1,2-dihydroisoquinolin-3-yl]acetic acid]		4190
Cn1c(C(OC(C)(C)C)C(=O)O)c(-c2cccc(C(F)(F)F)c2)c2ccccc2c1=O (stereo not shown) [Example 13, 2-(tert-butoxy)-2-{2-methyl-1-oxo-4-[3-(trifluoromethyl)phenyl]-1,2-dihydroisoquinolin-3-yl}acetic acid]	23800	
Cc1c(-c2c(C(OC(C)(C)C)C(=O)O)n(C)c(=O)c3cc(OCc4c(F)cc(F)cc4F)ccc23)ccc2c1CCCO2 (stereo not shown) [Example 99, 2-(tert-butoxy)-2-[2-methyl-4-(5-methyl-3,4-dihydro-2H-1-benzopyran-6-yl)-1-oxo-7-[(2,4,6-trifluorophenyl)methoxy]-1,2-dihydroisoquinolin-3-yl]acetic acid]	130	
Cc1cc2c(cc1-c1c(C(OC(C)(C)C)C(=O)O)n(C)c(=O)c3ccccc13)CCCO2 (stereo not shown) [Example 20, 2-(tert-butoxy)-2-[2-methyl-4-(7-methyl-3,4-dihydro-2H-1-benzopyran-6-yl)-1-oxo-1,2-dihydroisoquinolin-3-yl]acetic acid]	3790	
Cn1c(C(OC(C)(C)C)C(=O)O)c(-c2cc(Cl)ccc2Cl)c2ccccc2c1=O (stereo not shown) [Example 14, 2-(tert-butoxy)-2-[4-(2,5-dichlorophenyl)-2-methyl-1-oxo-1,2-dihydroisoquinolin-3-yl]acetic acid]	2570	
Cc1c(-c2c([C@H](OC(C)(C)C)C(=O)O)n(C)c(=O)c3cc(-c4cccc(F)c4)ccc23)cc(F)c2c1CCCO2 (atropisomer, axis not shown; (M)) [Example 210, (S)(M)-2-(tert-butoxy)-2-(4-(8-fluoro-5-methylchroman-6-yl)-7-(3-fluorophenyl)-2-methyl-1-oxo-1,2-dihydroisoquinolin-3-yl)acetic acid]	10	
Cn1c(C(OC(C)(C)C)C(=O)O)c(-c2ccc3c(c2)CCC(C)(C)O3)c2ccccc2c1=O (stereo not shown) [Example 78, 2-(tert-butoxy)-2-[4-(2,2-dimethyl-3,4-dihydro-2H-1-benzopyran-6-yl)-2-methyl-1-oxo-1,2-dihydroisoquinolin-3-yl]acetic acid]	41600	
Cc1ccc(-c2c(C(OC(C)(C)C)C(=O)O)n(C)c(=O)c3cc(C(N)=O)ccc23)cc1C (stereo not shown) [Example 178, [7-(aminocarbonyl)-4-(3,4-dimethylphenyl)-2-methyl-1-oxo-1,2-dihydro-3-isoquinolinyl][(1,1-dimethylethyl)oxy]acetic acid]	50000	
